Test results reported in patent US10253002B2, “Compounds and methods of treating infections” (Neoculi Pty Ltd., priority 2013, dated 2019).
Where “and” joins values, the source holds several entries; their conditions need not be identical. Equal entries are not always repeated. Where two headings read alike, the source gives them in different places.

How the values were obtained:
[1] = system: Pseudomonas aeruginosa; assay: Broth microdilution MIC, Example 7 (NCL812 and analogues); format: cell-based; conditions: 24 hours, duplicate lines per compound; for MIC: Pseudomonas aeruginosa, 24 h, read-out: MIC (μg/ml) at 24 hours, P. aeruginosa
[2] = Bioassay ranking of the analogues tested; conditions: M + R (MRSA and VRE combined)
[3] = system: MRSA; assay: Broth microdilution MIC, Example 7 (NCL812 and analogues); format: cell-based, Staphylococcus aureus; conditions: for activity against MRSA among analogues: MIC testing, two MRSA strains; for MIC: Staphylococcus aureus; for MIC / MRSA: MRSA
Summary of the method: (§1)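 Turbidity read visually and then at 600 nm defined the MIC (μg/ml), comparing drug-containing wells with a growth-control well lacking antimicrobial. Testing followed the CLSI broth microdilution method, in duplicate, using two strains per organism group.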

[4] = system: Escherichia coli; assay: as above; format: cell-based; conditions: E. coli, 24 hours, duplicate lines per compound; for MIC: Escherichia coli, read-out: MIC (μg/ml) at 24 hours
[5] = system: VRE; assay: as above; format: cell-based, Enterococcus spp.; conditions: for MIC: Enterococcus; for MIC / VRE: VRE; for activity against VRE among analogues: MIC testing, two VRE strains
Summary of the method: as §1

[6] = 24 hours, duplicate lines per compound
[7] = 24 h, read-out: MIC (μg/ml) at 24 hours, MRSA 1, MRSA 1, 24 hours, duplicate lines per compound
[8] = 24 h, read-out: MIC (μg/ml) at 24 hours, MRSA 2, MRSA 2, 24 hours, duplicate lines per compound
[9] = bioassay ranking, read-out: MRSA
[10] = 24 h, read-out: MIC (μg/ml) at 24 hours, VRE 1, VRE 1, 24 hours, duplicate lines per compound
[11] = 24 h, read-out: MIC (μg/ml) at 24 hours, VRE 2, VRE 2, 24 hours, duplicate lines per compound
[12] = bioassay ranking, read-out: VRE

Structure (SMILES) | MIC [1] [µg/mL] | M + R [2] [µg/mL] | activity against MRSA among analogues [3] | MIC (μg/ml) at 24 hours, MRSA 2 [3, 6] | MIC [3, 7] [µg/mL] | MIC [3, 8] [µg/mL] | MIC [3, 9] [µg/mL] | MIC [4] [µg/mL] | MIC [5, 10] [µg/mL] | MIC [5, 11] [µg/mL] | MIC [5, 12] [µg/mL] | activity against VRE among analogues [5] | MIC (μg/ml) at 24 hours, VRE 1 [5, 6] [µg/mL] | MIC (μg/ml) at 24 hours, VRE 2 [5, 6] | MIC (μg/ml) at 24 hours, P. aeruginosa [1] [µg/mL] | MIC (μg/ml) at 24 hours, MRSA 1 [3, 6] | MRSA ([3]; bioassay ranking) [µg/mL] | MIC (μg/ml) at 24 hours, E. coli [4] [µg/mL] | VRE ([5]; bioassay ranking) [µg/mL]
Cl.N=C(N/N=C/c1ccc(Cl)cc1)N/N=C/c1ccc(C(F)(F)F)cc1F [NCL078] | > 128 | 5.5 | greatest activity | 8 µg/mL | 4 | 16 | 8 | > 128 | 4 | 4 | 3 | greatest activity | 2 | 2 µg/mL | – | – | – | – | –
Cl.N=C(N/N=C/c1ccc(F)cc1)N/N=C/c1ccc(Cl)cc1 [NCL079] | > 128 | 4 | greatest activity | 8 µg/mL | 4 | 4 | 5 | > 128 | 2 | 4 | 3 | greatest activity | – | – | – | – | – | – | –
C/C(=N\NC(=N)N/N=C/c1ccc(Cl)cc1)c1ccc(C(F)(F)F)cc1.Cl [NCL080] | > 128 | 4 | greatest activity | 8 µg/mL | 4 | 4 | 5 | > 128 | 2 | 4 | 3 | greatest activity | – | – | – | – | – | – | –
C/C(=N\NC(=N)N/N=C/c1ccc(Cl)cc1)c1ccc(Cl)cc1.Cl [NCL081] | – | 3.75 | greatest activity | 8 µg/mL and 4 µg/mL | – | – | – | – | – | – | – | greatest activity | 1 | 4 µg/mL | >128 | 4 µg/mL | 5 | >128 | 2.5
Cl.N=C(N/N=C/c1ccc(Cl)cc1)N/N=C/c1ccccc1Cl [NCL082] | – | 5.25 | greatest activity | 8 µg/mL | – | – | – | – | – | – | – | greatest activity | 4 | 2 µg/mL and 4 µg/mL | >128 | 8 µg/mL and 4 µg/mL | 7 | >128 | 3.5
Cl.N=C(N/N=C/c1ccc(Cl)cc1)N/N=C/c1ccc(Cl)cc1F [NCL084] | > 128 | 3 | greatest activity | 4 µg/mL | 2 | 8 | 4 | > 128 | 2 | 2 | 2 | greatest activity | – | – | – | – | – | – | –
Cl.N=C(NN=Cc1ccc(Cl)cc1)NN=Cc1ccccc1F [NCL088] | – | 7 | greatest activity | 8 µg/mL | – | – | – | – | – | – | – | greatest activity | 4 | 4 µg/mL | >128 | 16 µg/mL and 8 µg/mL | 10 | >128 | 4
C/C(=N\NC(=N)N/N=C(\C)c1ccc(C(F)(F)F)cc1)c1ccc(Cl)cc1.Cl [NCL089] | > 128 | 2.875 | greatest activity | – | 4 | 4 | 5 | > 128 | 0.5 | 1 | 0.75 | – | – | 1 µg/mL | – | 8 µg/mL | – | – | –
